Data from patent US10526327B2, “Histone demethylase inhibitors” (CELGENE QUANTICEL RESEARCH, INC., priority 2013, dated 2020).

Assays:
JMJD2C = molecular target: T1, JMJD2C (Homo sapiens, UniProt Q9H3R0); test: JMJD2C in vitro enzyme inhibition assay (TR-FRET); type: biochemical
T1 construct: purchased BPS Bioscience 50105
T1 sequence (Q9H3R0 2-372): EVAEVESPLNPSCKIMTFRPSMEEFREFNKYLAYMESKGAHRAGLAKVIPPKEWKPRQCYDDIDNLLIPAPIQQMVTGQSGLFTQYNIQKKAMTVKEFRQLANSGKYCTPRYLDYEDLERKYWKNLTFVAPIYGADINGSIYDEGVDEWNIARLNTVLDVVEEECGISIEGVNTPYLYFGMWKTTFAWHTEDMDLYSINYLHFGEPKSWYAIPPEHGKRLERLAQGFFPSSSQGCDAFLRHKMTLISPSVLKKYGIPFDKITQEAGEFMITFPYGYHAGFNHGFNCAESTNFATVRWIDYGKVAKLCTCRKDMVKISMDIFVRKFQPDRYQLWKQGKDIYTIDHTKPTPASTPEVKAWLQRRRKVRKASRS
Procedure, shortened: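 IC50 came from 665/615 TR-FRET ratios (Eu-anti-H3K9me2 antibody, streptavidin-APC, EDTA quench) over 11-point inhibitor series. Reactions ran 30 min at room temperature: 0.3 nM JMJD2C (AA 2-372, baculovirus), 300 nM biotinylated H3K9me3 peptide, 2 μM alpha-ketoglutarate, 2 μM Fe(II), ascorbate, pH 7.3.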

Jarid1B = molecular target: T2, Jarid1B (Homo sapiens, UniProt Q9UGL1); test: Jarid1B in vitro enzyme inhibition assay (TR-FRET); type: biochemical
T2 construct: purchased BPS Bioscience or custom made by MolecularThroughput 50121
T2 sequence (Q9UGL1 2-751): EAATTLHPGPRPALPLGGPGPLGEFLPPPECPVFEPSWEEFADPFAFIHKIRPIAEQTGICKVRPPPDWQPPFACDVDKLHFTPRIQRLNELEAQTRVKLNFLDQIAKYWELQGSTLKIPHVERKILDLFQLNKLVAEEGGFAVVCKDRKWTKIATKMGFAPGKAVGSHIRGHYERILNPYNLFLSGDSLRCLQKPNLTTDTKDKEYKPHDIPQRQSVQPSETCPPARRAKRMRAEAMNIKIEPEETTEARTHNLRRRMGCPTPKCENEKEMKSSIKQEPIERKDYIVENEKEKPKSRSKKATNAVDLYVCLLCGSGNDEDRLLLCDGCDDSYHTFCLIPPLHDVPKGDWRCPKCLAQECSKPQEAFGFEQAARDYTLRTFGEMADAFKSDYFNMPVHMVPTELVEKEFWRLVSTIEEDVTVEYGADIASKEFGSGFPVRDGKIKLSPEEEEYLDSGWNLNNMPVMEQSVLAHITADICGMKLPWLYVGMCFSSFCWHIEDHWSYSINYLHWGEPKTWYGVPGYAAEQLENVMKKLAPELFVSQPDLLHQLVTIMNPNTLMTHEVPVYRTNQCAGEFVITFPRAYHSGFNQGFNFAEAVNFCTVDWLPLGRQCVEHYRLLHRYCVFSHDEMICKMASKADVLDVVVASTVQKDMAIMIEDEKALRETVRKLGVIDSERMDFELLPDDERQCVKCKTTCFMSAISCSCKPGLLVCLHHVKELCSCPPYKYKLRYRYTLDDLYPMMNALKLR
Procedure, shortened: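 TR-FRET read-out of demethylated product (Eu-anti-H3K4me1-2, streptavidin-APC) after EDTA quench; ratio 665/615 fitted to IC50. Reaction: 30 min at RT, 0.8 nM baculovirus Jarid1B residues 2-751, 2 μM α-ketoglutarate, 300 nM H3K4me3-biotin peptide, pH 7.3 buffer with Fe(II) and ascorbate.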

Row | Structure (SMILES) | IC50 (JMJD2C) | IC50 (Jarid1B)
1 | O=C(CO)N1CC[C@H](n2cc(Oc3nc(O)c4ccncc4n3)cn2)C1 [Example 155, 2-hydroxy-1-[(3S)-3-[4-({4-hydroxypyrido[3,4-d]pyrimidin-2-yl}oxy)-1H-pyrazol-1-yl]pyrrolidin-1-yl]ethan-1-one] | ≤ 100 nM | ≤ 100 nM
2 | O=C(C1CC1)N1CCC[C@@H](n2cc(Oc3nc(O)c4ccncc4n3)cn2)C1 [Example 156, 2-({1-[(3R)-1-cyclopropanecarbonylpiperidin-3-yl]-1H-pyrazol-4-yl}oxy)pyrido[3,4-d]pyrimidin-4-ol] | ≤ 100 nM | ≤ 100 nM
3 | O=C(c1ccccc1)N1CCC[C@@H](n2cc(Oc3nc(O)c4ccncc4n3)cn2)C1 [Example 157, 2-({1-[(3R)-1-benzoylpiperidin-3-yl]-1H-pyrazol-4-yl}oxy)pyrido[3,4-d]pyrimidin-4-ol] | ≤ 100 nM | ≤ 100 nM
4 | Oc1nc(Oc2cnn([C@@H]3CCCN(Cc4ccccc4)C3)c2)nc2cnccc12 [Example 158, 2-({1-[(3R)-1-benzylpiperidin-3-yl]-1H-pyrazol-4-yl}oxy)pyrido[3,4-d]pyrimidin-4-ol] | ≤ 100 nM | ≤ 100 nM
5 | Oc1nc(Oc2cnn([C@@H]3CCCN(c4ccc(F)cc4)C3)c2)nc2cnccc12 [Example 159, 2-({1-[(3R)-1-(4-fluorophenyl)piperidin-3-yl]-1H-pyrazol-4-yl}oxy)pyrido[3,4-d]pyrimidin-4-ol] | ≤ 100 nM | ≤ 100 nM
6 | Oc1nc(Oc2cnn([C@H]3CCCNC3)c2)nc2cnccc12 [Example 160, 2-({1-[(3S)-piperidin-3-yl]-1H-pyrazol-4-yl}oxy)pyrido[3,4-d]pyrimidin-4-ol] | ≤ 100 nM | ≤ 100 nM
7 | CCS(=O)(=O)N1CCC[C@H](n2cc(Oc3nc(O)c4ccncc4n3)cn2)C1 [Example 161, 2-({1-[(3S)-1-(ethanesulfonyl)piperidin-3-yl]-1H-pyrazol-4-yl}oxy)pyrido[3,4-d]pyrimidin-4-ol] | ≤ 100 nM | ≤ 100 nM
8 | O=S(=O)(C1CC1)N1CCC[C@H](n2cc(Oc3nc(O)c4ccncc4n3)cn2)C1 [Example 162, 2-({1-[(3S)-1-(cyclopropanesulfonyl)piperidin-3-yl]-1H-pyrazol-4-yl}oxy)pyrido[3,4-d]pyrimidin-4-ol] | ≤ 100 nM | ≤ 100 nM
9 | O=S(=O)(c1ccccc1)N1CCC[C@H](n2cc(Oc3nc(O)c4ccncc4n3)cn2)C1 [Example 163, 2-({1-[(3S)-1-(benzenesulfonyl)piperidin-3-yl]-1H-pyrazol-4-yl}oxy)pyrido[3,4-d]pyrimidin-4-ol] | ≤ 100 nM | ≤ 100 nM
10 | CC(=O)N1CCC[C@H](n2cc(Oc3nc(O)c4ccncc4n3)cn2)C1 [Example 164, 1-[(3S)-3-[4-({4-hydroxypyrido[3,4-d]pyrimidin-2-yl}oxy)-1H-pyrazol-1-yl]piperidin-1-yl]ethan-1-one] | ≤ 100 nM | ≤ 100 nM
11 | O=C(C1CC1)N1CCC[C@H](n2cc(Oc3nc(O)c4ccncc4n3)cn2)C1 [Example 165, 2-({1-[(3S)-1-cyclopropanecarbonylpiperidin-3-yl]-1H-pyrazol-4-yl}oxy)pyrido[3,4-d]pyrimidin-4-ol] | ≤ 100 nM | ≤ 100 nM
12 | N#CCC(=O)N1CCC[C@H](n2cc(Oc3nc(O)c4ccncc4n3)cn2)C1 [Example 166, 3-[(3S)-3-[4-({4-hydroxypyrido[3,4-d]pyrimidin-2-yl}oxy)-1H-pyrazol-1-yl]piperidin-1-yl]-3-oxopropanenitrile] | ≤ 100 nM | ≤ 100 nM
13 | O=C(c1ccccc1)N1CCC[C@H](n2cc(Oc3nc(O)c4ccncc4n3)cn2)C1 [Example 167, 2-({1-[(3S)-1-benzoylpiperidin-3-yl]-1H-pyrazol-4-yl}oxy)pyrido[3,4-d]pyrimidin-4-ol] | ≤ 100 nM | ≤ 100 nM
14 | Oc1nc(Oc2cnn([C@H]3CCCN(Cc4ccccc4)C3)c2)nc2cnccc12 [Example 168, 2-({1-[(3S)-1-benzylpiperidin-3-yl]-1H-pyrazol-4-yl}oxy)pyrido[3,4-d]pyrimidin-4-ol] | ≤ 100 nM | ≤ 100 nM
15 | Oc1nc(OCc2ccc(C(F)(F)F)cc2)nc2cnccc12 [Example 170, 2-{[4-(trifluoromethyl)phenyl]methoxy}pyrido[3,4-d]pyrimidin-4-ol] | 1000 to 10000 nM | 1000 to 10000 nM
16 | Oc1nc(OCc2ccccc2Cl)nc2cnccc12 [Example 171, 2-[(2-chlorophenyl)methoxy]pyrido[3,4-d]pyrimidin-4-ol] | ≤ 100 nM | 100 to 1000 nM
17 | Oc1nc(OCc2c(Cl)cccc2Cl)nc2cnccc12 [Example 172, 2-[(2,6-dichlorophenyl)methoxy]pyrido[3,4-d]pyrimidin-4-ol] | 1000 to 10000 nM | 1000 to 10000 nM
18 | Oc1nc(OCc2cccc(Cl)c2Cl)nc2cnccc12 [Example 173, 2-[(2,3-dichlorophenyl)methoxy]pyrido[3,4-d]pyrimidin-4-ol] | ≤ 100 nM | 1000 to 10000 nM
19 | Oc1nc(OCCc2ccc(Cl)cc2)nc2cnccc12 [Example 174, 2-[2-(4-chlorophenyl)ethoxy]pyrido[3,4-d]pyrimidin-4-ol] | 100 to 1000 nM | ≤ 100 nM
20 | Oc1nc(OCCc2ccc(Cl)c(Cl)c2)nc2cnccc12 [Example 175, 2-[2-(3,4-dichlorophenyl)ethoxy]pyrido[3,4-d]pyrimidin-4-ol] | ≤ 100 nM | 1000 to 10000 nM
21 | Oc1nc(OC(c2ccccc2)C(F)(F)F)nc2cnccc12 (stereo not drawn) [Example 176, 2-(2,2,2-trifluoro-1-phenylethoxy)pyrido[3,4-d]pyrimidin-4-ol] | ≤ 100 nM | 100 to 1000 nM
